The NIST ThermoML archive (doi:10.1016/j.jct.2013.04.010)
Values joined by “and” are separate entries in the source; they are usually repeats but may differ in a detail not shown here. Equal entries are not always repeated.

Conditions: Liquid, Other PVT measurement

CCCCC(CC)COC(=O)c1ccccc1C(=O)OCC(CC)CCCC (stereo not given) [bis(2-ethylhexyl) 1,2-benzenedicarboxylate]
Conditions | mass density
373.29 K, 3800 kPa | 921 kg/m3
373.29 K, 7600 kPa | 924 kg/m3
373.29 K, 12200 kPa | 928 kg/m3
373.29 K, 15900 kPa | 931 kg/m3
373.29 K, 18100 kPa | 933 kg/m3
373.29 K, 22300 kPa | 936 kg/m3
373.29 K, 28300 kPa | 940 kg/m3
373.29 K, 34800 kPa | 945 kg/m3
373.29 K, 42200 kPa | 950 kg/m3
373.29 K, 48900 kPa | 954 kg/m3
373.29 K, 56100 kPa | 959 kg/m3
373.29 K, 69500 kPa | 967 kg/m3
373.29 K, 83700 kPa | 974 kg/m3
373.29 K, 104200 kPa | 984 kg/m3
373.29 K, 125400 kPa | 994 kg/m3
373.29 K, 138900 kPa | 1001 kg/m3
373.29 K, 152900 kPa | 1007 kg/m3
373.29 K, 174400 kPa | 1015 kg/m3
373.29 K, 208300 kPa | 1029 kg/m3
373.29 K, 240000 kPa | 1041 kg/m3
373.29 K, 262100 kPa | 1046 kg/m3
423.53 K, 4200 kPa | 878 kg/m3
423.53 K, 7900 kPa | 885 kg/m3
423.53 K, 11100 kPa | 890 kg/m3
423.53 K, 14500 kPa | 895 kg/m3
423.53 K, 18000 kPa | 898 kg/m3
423.53 K, 21200 kPa | 901 kg/m3
423.53 K, 27800 kPa | 908 kg/m3
423.53 K, 35200 kPa | 914 kg/m3
423.53 K, 42100 kPa | 918 kg/m3
423.53 K, 49200 kPa | 924 kg/m3
423.53 K, 55700 kPa | 930 kg/m3
423.53 K, 70700 kPa | 939 kg/m3
423.53 K, 83700 kPa | 948 kg/m3
423.53 K, 104200 kPa | 960 kg/m3
423.53 K, 125400 kPa | 970 kg/m3
423.53 K, 139900 kPa | 977 kg/m3
423.53 K, 153700 kPa | 983 kg/m3
423.53 K, 173400 kPa | 992 kg/m3
423.53 K, 207100 kPa | 1006 kg/m3
423.53 K, 239400 kPa | 1018 kg/m3
423.53 K, 263800 kPa | 1028 kg/m3
476.2 K, 5500 kPa | 847 kg/m3
476.2 K, 9400 kPa | 853 kg/m3
476.2 K, 9500 kPa | 853 kg/m3
476.2 K, 15200 kPa | 861 kg/m3
476.2 K, 15700 kPa | 861 kg/m3
476.2 K, 26800 kPa | 874 kg/m3
476.2 K, 27300 kPa | 874 kg/m3
476.2 K, 27500 kPa | 874 kg/m3
476.2 K, 46700 kPa | 894 kg/m3
476.2 K, 46900 kPa | 894 kg/m3
476.2 K, 59800 kPa | 905 kg/m3
476.2 K, 70700 kPa | 914 kg/m3
476.2 K, 71500 kPa | 913 kg/m3
476.2 K, 95700 kPa | 931 kg/m3
476.2 K, 96400 kPa | 931 kg/m3
476.2 K, 114200 kPa | 942 kg/m3
476.2 K, 114800 kPa | 942 kg/m3
476.2 K, 139800 kPa | 959 kg/m3
476.2 K, 140400 kPa | 958 kg/m3
476.2 K, 176200 kPa | 975 kg/m3
476.2 K, 206900 kPa | 990 kg/m3
476.2 K, 240200 kPa | 1002 kg/m3
476.2 K, 269000 kPa | 1013 kg/m3
491.86 K, 3900 kPa | 830 kg/m3 and 831 kg/m3
491.86 K, 4100 kPa | 830 kg/m3
491.86 K, 9900 kPa | 840 kg/m3
491.86 K, 10500 kPa | 839 kg/m3
491.86 K, 22800 kPa | 856 kg/m3
491.86 K, 23300 kPa | 856 kg/m3
491.86 K, 37200 kPa | 870 kg/m3
491.86 K, 37500 kPa | 870 kg/m3
491.86 K, 50700 kPa | 886 kg/m3
491.86 K, 51100 kPa | 885 kg/m3
491.86 K, 71500 kPa | 902 kg/m3
491.86 K, 71900 kPa | 902 kg/m3
491.86 K, 94800 kPa | 918 kg/m3
491.86 K, 95000 kPa | 918 kg/m3
491.86 K, 121700 kPa | 934 kg/m3
491.86 K, 121800 kPa | 934 kg/m3
491.86 K, 145400 kPa | 948 kg/m3
491.86 K, 145600 kPa | 948 kg/m3
491.86 K, 177200 kPa | 964 kg/m3
491.86 K, 177400 kPa | 964 kg/m3
491.86 K, 204300 kPa | 977 kg/m3
491.86 K, 206000 kPa | 978 kg/m3
491.86 K, 229400 kPa | 989 kg/m3
491.86 K, 230800 kPa | 988 kg/m3
491.86 K, 253700 kPa | 998 kg/m3
491.86 K, 258100 kPa | 1000 kg/m3
523.6 K, 5700 kPa | 811 kg/m3
523.6 K, 9200 kPa | 817 kg/m3
523.6 K, 16100 kPa | 827 kg/m3
523.6 K, 21600 kPa | 835 kg/m3
523.6 K, 27300 kPa | 842 kg/m3
523.6 K, 27500 kPa | 842 kg/m3
523.6 K, 35500 kPa | 851 kg/m3
523.6 K, 35700 kPa | 851 kg/m3
523.6 K, 44200 kPa | 860 kg/m3
523.6 K, 44300 kPa | 860 kg/m3
523.6 K, 44400 kPa | 860 kg/m3
523.6 K, 44600 kPa | 860 kg/m3
523.6 K, 55800 kPa | 871 kg/m3
523.6 K, 56300 kPa | 871 kg/m3
523.6 K, 68500 kPa | 882 kg/m3
523.6 K, 68900 kPa | 882 kg/m3
523.6 K, 82200 kPa | 893 kg/m3
523.6 K, 82500 kPa | 892 kg/m3
523.6 K, 97000 kPa | 903 kg/m3
523.6 K, 97300 kPa | 903 kg/m3
523.6 K, 117000 kPa | 916 kg/m3
523.6 K, 117400 kPa | 916 kg/m3
523.6 K, 117700 kPa | 916 kg/m3
523.6 K, 155700 kPa | 939 kg/m3
523.6 K, 156100 kPa | 939 kg/m3
523.6 K, 181200 kPa | 952 kg/m3
523.6 K, 181500 kPa | 952 kg/m3
523.6 K, 209500 kPa | 964 kg/m3
523.6 K, 209900 kPa | 964 kg/m3
523.6 K, 233900 kPa | 974 kg/m3
523.6 K, 234000 kPa | 974 kg/m3
523.6 K, 253400 kPa | 983 kg/m3
523.6 K, 253600 kPa | 983 kg/m3
523.6 K, 263500 kPa | 987 kg/m3
